We go through 61 compounds from PMC5733478, “A Non-imaging High Throughput Approach to Chemical Library Screening at the Unmodified Adenosine-A3 Receptor in Living Cells” (Frontiers in Pharmacology, 2017).

Where a name gives a salt, the structure may show the parent alone.

The first test addresses T1, human A3AR (Homo sapiens, UniProt P0DMS8).
T1 construct: expressed in transfected cells
T1 sequence (P0DMS8 1-318): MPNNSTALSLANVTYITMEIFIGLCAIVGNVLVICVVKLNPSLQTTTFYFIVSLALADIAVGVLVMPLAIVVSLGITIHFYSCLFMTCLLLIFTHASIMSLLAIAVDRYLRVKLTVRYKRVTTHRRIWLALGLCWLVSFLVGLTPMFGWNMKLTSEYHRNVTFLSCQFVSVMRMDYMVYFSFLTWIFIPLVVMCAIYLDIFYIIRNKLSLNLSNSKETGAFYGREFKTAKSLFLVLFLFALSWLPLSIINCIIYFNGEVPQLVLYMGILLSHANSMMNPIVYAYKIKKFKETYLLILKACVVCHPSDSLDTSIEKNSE
Kind of test: LOPAC library primary screen: single concentration (10 μM) inhibition of 25 nM CA200645 binding, PHERAstar FS.
Details: not given
In the case of `CCCCCCCCCCC/C=C\C(C)(C)/C=C\CCCC(=O)O` [7,7-Dimethyl-(5Z,8Z)-eicosadienoic acid], the “% 25 nM CA200645 binding” value is recorded as 100.3 ± 12.4%.

As for `O.O=c1cc(-c2ccccc2)oc2c(O)c(O)ccc12` [7,8-Dihydroxyflavone hydrate], the “% 25 nM CA200645 binding” value was determined as 68.2 ± 13.0%.

Take `O=[N+]([O-])c1cccc2cn[nH]c12` [7-Nitroindazole]: the “% 25 nM CA200645 binding” value is 126.0 ± 15.1%.

`Cn1c(=O)c2c(nc(C=Cc3cccc(Cl)c3)n2C)n(C)c1=O` [8-(3-Chlorostyryl)caffeine]: the “% 25 nM CA200645 binding” value is recorded as 79.6 ± 7.9%.

`Cn1c(=O)c2[nH]c(-c3ccc(S(=O)(=O)O)cc3)nc2n(C)c1=O` [8-(p-Sulfophenyl)theophylline]: the “% 25 nM CA200645 binding” value is reported as 97.2 ± 13.7%.

As to `Nc1nc2c(nc(Br)n2[C@@H]2O[C@@H]3COP(=O)([O-])O[C@H]3[C@H]2O)c(=O)[nH]1.[Na+]` [8-Bromo-cGMP sodium], the “% 25 nM CA200645 binding” value was 102.4 ± 7.4%.

Take `Cn1c(=O)c2[nH]c(C3CCCC3)nc2n(C)c1=O` [8-Cyclopentyl-1,3-dimethylxanthine]: the “% 25 nM CA200645 binding” value was found to be 96.1 ± 9.6%.

With `Nc1ncnc2c1ncn2C1CCCC1` [9-cyclopentyladenine], the “% 25 nM CA200645 binding” value amounted to 102.2 ± 2.7%.

With `CC1=C(/C=C/C(C)=C/C=C/C(C)=C\C(=O)O)C(C)(C)CCC1` [13-cis-retinoic acid], the “% 25 nM CA200645 binding” value came to 85.2 ± 2.9%.

`CC(C)C[C@H]1C(=O)N2CCC[C@H]2[C@]2(O)O[C@](NC(=O)[C@@H]3C=C4c5cccc6[nH]c(Br)c(c56)C[C@H]4N(C)C3)(C(C)C)C(=O)N12.CS(=O)(=O)O` [(+)-Bromocriptine methanesulfonate]: the “% 25 nM CA200645 binding” value is given as 60.6 ± 9.2%.

As for `CN(C)CC[C@@H](c1ccc(Br)cc1)c1ccccn1` [(+)-Brompheniramine maleate], the “% 25 nM CA200645 binding” value worked out at 97.2 ± 7.4%.

As for `CC(C)(C)[C@]1(O)CCN2C[C@H]3c4ccccc4CCc4cccc(c43)[C@@H]2C1` [(+)-Butaclamol hydrochloride], the “% 25 nM CA200645 binding” value was determined as 98.6 ± 1.9%.

In the case of `CN(C)CC[C@@H](c1ccc(Cl)cc1)c1ccccn1` [(+)-Chlorpheniramine maleate], the “% 25 nM CA200645 binding” value is 96.8 ± 6.2%.

As for `N[C@@H](Cn1oc(=O)[nH]c1=O)C(=O)O` [(+)-Quisqualic acid], the “% 25 nM CA200645 binding” value turned out to be 106.4 ± 10.3%.

In the case of `C[N+]1(C)CCc2cc3c(cc2[C@H]1[C@@H]1OC(=O)c2c1ccc1c2OCO1)OCO3.[Br-]` [(-)-Bicuculline methbromide, 1(S), 9(R)], the “% 25 nM CA200645 binding” value was 67.4 ± 5.9%.

With `CN1C(=O)CC[C@H]1c1cccnc1` [(-)-Cotinine], the “% 25 nM CA200645 binding” value is 106.5 ± 4.3%.

Consider `CNC[C@H](O)c1ccc(O)c(O)c1` [(-)-Epinephrine bitartrate], for which the “% 25 nM CA200645 binding” value stood at 100.5 ± 6.3%.

`CN1CC[C@@]2(C)c3cc(O)ccc3N(C)[C@@H]12.O=C(O)/C=C/C(=O)O` [(-)-Eseroline fumarate]: the “% 25 nM CA200645 binding” value amounted to 105.8 ± 9.3%.

Turning to `COc1ccc2cc([C@H](C)C(=O)[O-])ccc2c1.[Na+]` [(-)-Naproxen sodium], the “% 25 nM CA200645 binding” value is 97.8 ± 4.0%.

Consider `C=C(C)[C@H]1CC=C(C(=O)O)CC1` [(-)-Perillic acid], for which the “% 25 nM CA200645 binding” value is given as 115.8 ± 16.6%.

`CNC(=O)Oc1ccc2c(c1)[C@]1(C)CCN(C)[C@@H]1N2C` [(-)-Physostigmine]: the “% 25 nM CA200645 binding” value came out at 99.3 ± 6.1%.

As to `C[N+]1(C)[C@@H]2C[C@@H](OC(=O)[C@H](CO)c3ccccc3)C[C@H]1[C@@H]1O[C@@H]12` [(-)-Scopolamine methyl bromide], the “% 25 nM CA200645 binding” value was found to be 88.5 ± 14.0%.

Take `CCN1CCC[C@H]1CNC(=O)c1cc(S(N)(=O)=O)ccc1OC` [(-)-Sulpiride]: the “% 25 nM CA200645 binding” value amounted to 103.0 ± 8.9%.

For `Cl.c1ccc([C@H]2CN3CCSC3=N2)cc1` [(-)-Tetramisole hydrochloride], the “% 25 nM CA200645 binding” value was 112.9 ± 6.8%.

As for `NC/C=C/C(=O)O` [(E)-4-amino-2-butenoic acid], the “% 25 nM CA200645 binding” value is listed as 101.5 ± 12.6%.

As to `N[C@H](C(=O)O)c1cc(O)cc(O)c1` [(S)-3,5-Dihydroxyphenylglycine], the “% 25 nM CA200645 binding” value stood at 102.7 ± 20.4%.

On to `CC[C@@]1(O)C(=O)OCc2c1cc1n(c2=O)Cc2cc3ccccc3nc2-1` [(S)-(+)-Camptothecin], for which the “% 25 nM CA200645 binding” value came out at 99.7 ± 12.1%.

For `C[C@](N)(CCP(=O)(O)O)C(=O)O.Cl` [(S)-MAP4 hydrochloride], the “% 25 nM CA200645 binding” value worked out at 89.0 ± 15.4%.

Consider `CC(C)NC[C@H](O)COc1cccc2ccccc12` [(S)-Propranolol hydrochloride], for which the “% 25 nM CA200645 binding” value is listed as 100.2 ± 8.9%.

In the case of `Cl.NCCNS(=O)(=O)c1cccc2c(Cl)cccc12` [A3 hydrochloride], the “% 25 nM CA200645 binding” value amounted to 95.5 ± 8.6%.

In the case of `Cl.NC[C@@H]1O[C@H](c2ccccc2)Cc2c1ccc(O)c2O` [A-68930 hydrochloride], the “% 25 nM CA200645 binding” value is 95.6 ± 9.3%.

As for `Cl.NC[C@@H]1O[C@H](C23CC4CC(CC(C4)C2)C3)Cc2c1ccc(O)c2O` [A-77636 hydrochloride], the “% 25 nM CA200645 binding” value was 87.3 ± 8.5%.

In the case of `CCS(=O)(=O)Nc1cccc(C(=C2CCCCC2)c2cnc[nH]2)c1` [A-315456], the “% 25 nM CA200645 binding” value was 92.6 ± 5.2%.

On to `CNC(=O)[C@H]1O[C@@H](n2cnc3c(NCc4ccc(N)cc4)ncnc32)[C@H](O)[C@@H]1O` [AB-MECA, reference compound], for which the “% 25 nM CA200645 binding” value came to 48.5 ± 9.1%.

Consider `Cc1cc([C@@H]2CCCN2C)on1.Cl` [ABT-418 hydrochloride], for which the “% 25 nM CA200645 binding” value turned out to be 101.9 ± 4.7%.

`CCCCCCCCc1ccc(-c2ccc(C(=O)O)cc2)cc1` [AC-55649]: the “% 25 nM CA200645 binding” value was 83.6 ± 13.2%.

On to `CC[n+]1c(/C=C/C=C2/N(C)c3ccccc3C2(C)C)sc2ccccc21.[I-]` [AC-93253 iodide], for which the “% 25 nM CA200645 binding” value stood at 89.8 ± 11.3%.

With `COc1ccc(NC=O)c(C(=O)CCNC(C)=O)c1` [AFMK], the “% 25 nM CA200645 binding” value came out at 100.0 ± 2.7%.

With `N#C/C(=C\c1ccc(-c2cc(Cl)ccc2Cl)o1)C(=O)Nc1cccc2ncccc12` [AGK2], the “% 25 nM CA200645 binding” value stood at 35.8 ± 5.6%.

For `NC1(C(=O)O)CCc2cc(C(=O)O)ccc21` (centres unmarked) [AIDA], the “% 25 nM CA200645 binding” value is given as 99.4 ± 5.4%.

On to `O=C(O)CCC/C=C\C[C@@H]1[C@@H](/C=C/[C@H](O)C2Cc3ccccc3C2)[C@@H](F)C[C@@H]1O` [AL-8810], for which the “% 25 nM CA200645 binding” value is reported as 75.0 ± 17.3%.

Consider `CC(C)(C)c1ccc(/C=C/C(=O)Nc2ccc3c(c2)OCCO3)cc1` [AMG 9810], for which the “% 25 nM CA200645 binding” value is reported as 59.0 ± 6.4%.

For `CCN(CC)c1ncnc2c1ncn2[C@@H]1O[C@H](COP(=O)([O-])OP(=O)([O-])C(Br)(Br)P(=O)([O-])O)[C@@H](O)[C@H]1O.[Na+].[Na+].[Na+]` [ARL 67156 trisodium salt], the “% 25 nM CA200645 binding” value is 103.2 ± 16.2%.

In the case of `O=C1NC(=O)/C(=C\c2ccc3nccnc3c2)S1` [AS605240], the “% 25 nM CA200645 binding” value worked out at 83.4 ± 13.4%.

As for `O=C1NC(=O)/C(=C/c2ccc3c(c2)OC(F)(F)O3)S1` [AS 604850], the “% 25 nM CA200645 binding” value was found to be 58.3 ± 11.4%.

`O=C1NC(=O)/C(=C/c2ccc(-c3ccc(F)cc3O)o2)S1` [AS-252424]: the “% 25 nM CA200645 binding” value stood at 45.8 ± 20.9%.

Take `CC(C)(C)c1o[nH]c(=O)c1CC(N)C(=O)O` (centres unmarked) [ATPA]: the “% 25 nM CA200645 binding” value turned out to be 96.6 ± 6.2%.

Turning to `CC(C)(C)c1onc(OCP(=O)(O)O)c1CC(N)C(=O)O` (centres unmarked) [ATPO], the “% 25 nM CA200645 binding” value came out at 98.4 ± 3.3%.

Turning to `CC(=O)c1ccc2c(c1)N(CCCN(C)C)c1ccccc1S2` [Acepromazine maleate], the “% 25 nM CA200645 binding” value was found to be 90.7 ± 4.5%.

For the compound `CC(N)=O` [Acetamide], the “% 25 nM CA200645 binding” value is 96.1 ± 7.6%.

Take `CC(=O)Nc1nnc(S(N)(=O)=O)s1` [Acetazolamide]: the “% 25 nM CA200645 binding” value is given as 92.4 ± 4.0%.

On to `CC(=O)c1ccc(S(=O)(=O)NC(=O)NC2CCCCC2)cc1` [Acetohexamide], for which the “% 25 nM CA200645 binding” value is 101.4 ± 13.1%.

In the case of `CC(=O)OC(C)C[N+](C)(C)C.[Cl-]` (stereo not drawn) [Acetyl-beta-methylcholine chloride], the “% 25 nM CA200645 binding” value is on record as 91.4 ± 19.2%.

With `CC(=O)Oc1ccccc1C(=O)O` [Acetylsalicylic acid], the “% 25 nM CA200645 binding” value was found to be 102.5 ± 9.1%.

On to `CC(=O)SCC[N+](C)(C)C.[Cl-]` [Acetylthiocholine chloride], for which the “% 25 nM CA200645 binding” value was determined as 95.7 ± 4.8%.

`CCN1C[C@]2(COC)[C@H](O)C[C@H](OC)[C@@]34[C@@H]5C[C@@]6(O)[C@H](OC(=O)c7ccccc7)[C@@H]5[C@@](OC(C)=O)([C@@H]([C@H](OC)[C@H]23)[C@@H]14)[C@@H](O)[C@@H]6OC` [Aconitine]: the “% 25 nM CA200645 binding” value is given as 95.2 ± 4.4%.

Consider `Nc1nc2c(ncn2COCCO)c(=O)[nH]1` [Acyclovir], for which the “% 25 nM CA200645 binding” value is listed as 99.9 ±13.7%.

In the case of `NCCCCN=C(N)N` [Agmatine sulfate], the “% 25 nM CA200645 binding” value is reported as 97.6 ± 11.6%.

For the compound `CC(N)C(=O)OC(C)(C)Cc1ccc(Cl)cc1` (centres unmarked) [Alaproclate hydrochloride], the “% 25 nM CA200645 binding” value is 104.8 ± 8.1%.

The same test, now with this note: % of 25 nM CA200645 binding in the presence of 10 μM compound, LOPAC full screen, A3AR CHO cells.
Turning to `CNC(=O)[C@H]1O[C@@H](n2cnc3c(NCc4ccc(N)cc4)ncnc32)[C@H](O)[C@@H]1O` [AB-MECA, reference compound], the “% Total CA200645 binding” value is on record as 49.5 ± 5.8%.

Turning to `Nc1ccc(CCNc2ncnc3c2ncn3[C@@H]2O[C@H](CO)[C@@H](O)[C@H]2O)cc1` [APNEA, reference compound], the “% Total CA200645 binding” value is reported as 41.0 ± 7.2%.

Still in this test, the particulars now being: % of control wells (1% DMSO and 25 nM CA200645); compounds at 10 µM; whole live cells expressing the A3AR; mean ± SD, three experiments in duplicate.
Take `CC1=C(C)C(=O)C(CCCCC#CCCCC#CCO)=C(C)C1=O` [AA-861]: the “% 25 nM CA200645 binding” value worked out at 69.6 ± 8.4%.
